Results as given in ChEMBL document CHEMBL5212743, “Selectivity Literature for EUbOPEN Chemogenomics Library wave 3” (2023).

Columns and labels:
Histamine H1 receptor [1] = molecular target: T1, Histamine H1 receptor (Homo sapiens, UniProt P35367); assay: Selectivity interaction (GPCR panel (PDSP screen)) EUB0000289c HRH1
[2] = molecular target: Serine/threonine-protein kinase BRSK2 (Homo sapiens, UniProt Q8IWQ3); assay: Selectivity interaction (KinomeScan (DiscoverX, competition-binding assay)) EUB0000289c BRSK2
[3] = molecular target: Serine/threonine-protein kinase BRSK2 (Homo sapiens) (UniProt Q8IWQ3); assay: Selectivity interaction (KinomeScan (DiscoverX)) EUB0000289c BRSK2; details: at 1 µM
[4] = molecular target: T2, Serine/threonine-protein kinase Nek7 (Homo sapiens, UniProt Q8TDX7); assay: Selectivity interaction (KinomeScan (DiscoverX, competition-binding assay)) EUB0000289c NEK7
Target sequence in this assay (Q8TDX7 whole entry): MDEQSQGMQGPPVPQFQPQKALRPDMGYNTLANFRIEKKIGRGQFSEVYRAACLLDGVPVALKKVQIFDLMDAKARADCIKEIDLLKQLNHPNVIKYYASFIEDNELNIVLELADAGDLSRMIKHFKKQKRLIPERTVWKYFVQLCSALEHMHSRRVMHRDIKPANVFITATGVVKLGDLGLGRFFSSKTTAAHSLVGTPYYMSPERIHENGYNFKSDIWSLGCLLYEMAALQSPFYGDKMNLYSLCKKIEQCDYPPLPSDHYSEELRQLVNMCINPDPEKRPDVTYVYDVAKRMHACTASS

[5] = molecular target: T2, Serine/threonine-protein kinase Nek7; assay: Selectivity interaction (KinomeScan (DiscoverX)) EUB0000289c NEK7; details: at 1 µM
Target sequence in this assay (Q8TDX7 whole entry, looked up): as the sequence (Q8TDX7 whole entry) above

[6] = molecular target: Lysosomal Pro-X carboxypeptidase (Homo sapiens) (UniProt P42785); assay: Selectivity interaction (CEREP panel (Eurofins, panel of ion channels, receptors, GPCRs, and enzymes (ligand binding assay))) EUB0000289c PRCP; details: at 3 µM
Ephrin type-A receptor 1 = Ephrin type-A receptor 1 (Homo sapiens, UniProt P21709); assay: Selectivity interaction (KinomeScan (DiscoverX, competition-binding assay)) EUB0000289c EPHA1
[7] = molecular target: Ephrin type-A receptor 1 (Homo sapiens) (UniProt P21709); assay: Selectivity interaction (KinomeScan (DiscoverX)) EUB0000289c EPHA1; details: at 1 µM
[8] = molecular target: G protein-coupled receptor kinase 3 (Homo sapiens, UniProt P35626); assay: Selectivity interaction (KinomeScan (DiscoverX, competition-binding assay)) EUB0000289c ADRBK2
[9] = molecular target: T3, G protein-coupled receptor kinase 3 (Homo sapiens) (UniProt P35626); assay: Selectivity interaction (KinomeScan (DiscoverX)) EUB0000289c ADRBK2; details: at 1 µM
T3 sequence (whole entry): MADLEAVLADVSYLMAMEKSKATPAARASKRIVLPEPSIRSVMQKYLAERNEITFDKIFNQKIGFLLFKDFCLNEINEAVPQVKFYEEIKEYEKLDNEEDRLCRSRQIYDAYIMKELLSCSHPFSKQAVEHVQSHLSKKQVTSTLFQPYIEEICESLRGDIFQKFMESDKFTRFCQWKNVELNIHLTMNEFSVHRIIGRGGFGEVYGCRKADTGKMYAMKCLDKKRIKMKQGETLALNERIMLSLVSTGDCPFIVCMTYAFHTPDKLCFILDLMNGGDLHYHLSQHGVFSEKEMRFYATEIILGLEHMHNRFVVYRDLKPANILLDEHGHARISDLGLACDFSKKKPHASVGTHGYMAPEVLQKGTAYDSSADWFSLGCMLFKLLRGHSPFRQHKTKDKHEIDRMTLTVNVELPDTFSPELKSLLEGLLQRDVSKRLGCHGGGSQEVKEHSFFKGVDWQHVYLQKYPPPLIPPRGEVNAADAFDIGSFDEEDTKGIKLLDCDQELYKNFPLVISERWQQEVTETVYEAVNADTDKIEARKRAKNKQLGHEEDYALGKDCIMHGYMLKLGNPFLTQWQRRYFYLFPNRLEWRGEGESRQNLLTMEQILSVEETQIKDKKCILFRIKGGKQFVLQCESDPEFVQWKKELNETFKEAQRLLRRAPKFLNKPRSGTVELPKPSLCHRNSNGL

[10] = molecular target: T4, Gamma-aminobutyric acid receptor subunit alpha-1 (Homo sapiens, UniProt P14867); assay: Selectivity interaction (GPCR panel (PDSP screen)) EUB0000547a GABRA1
T4 sequence (P14867 whole entry): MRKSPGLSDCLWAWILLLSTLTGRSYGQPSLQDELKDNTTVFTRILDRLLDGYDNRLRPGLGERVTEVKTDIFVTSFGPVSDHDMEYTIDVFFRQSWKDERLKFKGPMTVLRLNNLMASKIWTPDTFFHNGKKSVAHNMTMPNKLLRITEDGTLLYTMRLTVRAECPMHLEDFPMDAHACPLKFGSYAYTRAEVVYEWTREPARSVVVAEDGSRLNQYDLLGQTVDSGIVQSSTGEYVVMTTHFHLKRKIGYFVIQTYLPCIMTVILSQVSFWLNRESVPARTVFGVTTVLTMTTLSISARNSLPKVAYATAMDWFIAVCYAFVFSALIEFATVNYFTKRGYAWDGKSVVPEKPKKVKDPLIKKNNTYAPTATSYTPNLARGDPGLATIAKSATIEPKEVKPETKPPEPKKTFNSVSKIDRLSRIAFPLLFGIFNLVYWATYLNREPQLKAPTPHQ

[11] = molecular target: Tyrosine-protein kinase ZAP-70 (Homo sapiens) (UniProt P43403); assay: Selectivity interaction (KinomeScan (DiscoverX)) EUB0000547a ZAP70; details: at 1 µM
[12] = molecular target: T5, Mitogen-activated protein kinase kinase kinase 13 (Homo sapiens) (UniProt O43283); assay: Selectivity interaction (KinomeScan (DiscoverX)) EUB0000547a MAP3K13; details: at 1 µM
T5 sequence (whole entry): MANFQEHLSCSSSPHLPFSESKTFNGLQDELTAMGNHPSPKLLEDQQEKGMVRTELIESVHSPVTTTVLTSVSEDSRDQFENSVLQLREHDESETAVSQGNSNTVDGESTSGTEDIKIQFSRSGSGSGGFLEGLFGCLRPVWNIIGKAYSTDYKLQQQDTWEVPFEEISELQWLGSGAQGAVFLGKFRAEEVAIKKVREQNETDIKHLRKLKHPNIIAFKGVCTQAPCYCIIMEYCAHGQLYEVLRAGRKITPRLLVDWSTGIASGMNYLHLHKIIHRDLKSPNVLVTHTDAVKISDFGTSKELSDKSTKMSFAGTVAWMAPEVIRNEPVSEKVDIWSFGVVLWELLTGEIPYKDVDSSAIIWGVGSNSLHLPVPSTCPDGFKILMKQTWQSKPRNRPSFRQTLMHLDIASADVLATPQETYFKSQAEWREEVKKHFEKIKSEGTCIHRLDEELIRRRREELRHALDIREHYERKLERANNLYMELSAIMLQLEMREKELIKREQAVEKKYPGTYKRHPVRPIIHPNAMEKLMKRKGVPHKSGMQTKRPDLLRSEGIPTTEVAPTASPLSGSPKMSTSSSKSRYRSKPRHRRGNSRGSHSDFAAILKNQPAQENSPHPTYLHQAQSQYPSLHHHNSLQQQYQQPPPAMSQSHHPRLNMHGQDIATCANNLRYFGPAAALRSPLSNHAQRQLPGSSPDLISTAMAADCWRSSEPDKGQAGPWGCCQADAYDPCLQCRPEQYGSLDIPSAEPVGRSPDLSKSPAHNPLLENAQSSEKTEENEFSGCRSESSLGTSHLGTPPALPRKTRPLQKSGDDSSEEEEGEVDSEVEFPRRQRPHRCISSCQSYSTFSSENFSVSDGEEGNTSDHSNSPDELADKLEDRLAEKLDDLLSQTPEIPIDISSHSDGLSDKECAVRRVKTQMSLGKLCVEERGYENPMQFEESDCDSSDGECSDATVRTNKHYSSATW

[13] = molecular target: 5-hydroxytryptamine receptor 2B (Homo sapiens, UniProt P41595); assay: Selectivity interaction (GPCR panel (PDSP screen)) EUB0000748a HTR2B
[14] = molecular target: T6, Sigma non-opioid intracellular receptor 1 (Homo sapiens, UniProt Q99720); assay: Selectivity interaction (GPCR panel (PDSP screen)) EUB0000748a SIGMAR1
[15] = molecular target: T6, Sigma non-opioid intracellular receptor 1; assay: Selectivity interaction (GPCR panel (PDSP screen)) EUB0000289bCl SIGMAR1
[16] = molecular target: Receptor tyrosine-protein kinase erbB-2 (Homo sapiens) (UniProt P04626); assay: Selectivity interaction (KinomeScan (DiscoverX)) EUB0000638a ERBB2; details: at 1 µM
[17] = molecular target: Receptor tyrosine-protein kinase erbB-4 (Homo sapiens) (UniProt Q15303); assay: Selectivity interaction (KinomeScan (DiscoverX)) EUB0000638a ERBB4; details: at 1 µM
[18] = molecular target: Tyrosine-protein kinase Blk (Homo sapiens, UniProt P51451); assay: Selectivity interaction (Z’-LYTE assay) EUB0000638a BLK
[19] = molecular target: Tyrosine-protein kinase Fgr (Homo sapiens, UniProt P09769); assay: Selectivity interaction (Z’-LYTE assay) EUB0000638a FGR
[20] = molecular target: Tyrosine-protein kinase Fyn (Homo sapiens, UniProt P06241); assay: Selectivity interaction (Z’-LYTE assay) EUB0000638a FYN
[21] = molecular target: Tyrosine-protein kinase HCK (Homo sapiens, UniProt P08631); assay: Selectivity interaction (Z’-LYTE assay) EUB0000638a HCK
[22] = molecular target: Tyrosine-protein kinase Lck (Homo sapiens, UniProt P06239); assay: Selectivity interaction (Z’-LYTE assay) EUB0000638a LCK
[23] = molecular target: Tyrosine-protein kinase Lyn (Homo sapiens, UniProt P07948); assay: Selectivity interaction (Z’-LYTE assay) EUB0000638a LYN
[24] = molecular target: Proto-oncogene tyrosine-protein kinase Src (Homo sapiens, UniProt P12931); assay: Selectivity interaction (Z’-LYTE assay) EUB0000638a SRC
[25] = molecular target: Tyrosine-protein kinase Yes (Homo sapiens, UniProt P07947); assay: Selectivity interaction (Z’-LYTE assay) EUB0000638a YES1
[26] = molecular target: Tyrosine-protein kinase Tec (Homo sapiens) (UniProt P42680); details: at 1 µM
[27] = molecular target: Alpha-2B adrenergic receptor (Homo sapiens, UniProt P18089); assay: Selectivity interaction (GPCR panel (PDSP screen)) EUB0000309b ADRA2B
Histamine H1 receptor [28] = molecular target: T1, Histamine H1 receptor; assay: (§1) Selectivity interaction (GPCR panel (PDSP screen)) EUB0000348aPTSA HRH1; details: at 10 µM
Histamine H1 receptor [29] = molecular target: T1, Histamine H1 receptor; assay: as §1
[30] = molecular target: Delta-type opioid receptor (Homo sapiens) (UniProt P41143); assay: Selectivity interaction (CEREP panel (Eurofins, receptors, ion channels, and other enzymes)) EUB0000348aPTSA OPRD1; details: at 10 µM
[31] = molecular target: Cyclin-dependent kinase 5 (Homo sapiens) (UniProt Q00535); assay: Selectivity interaction (KinomeScan (DiscoverX)) EUB0000348aPTSA CDK5; details: at 1 µM
[32] = molecular target: Dual specificity protein kinase CLK4 (Homo sapiens) (UniProt Q9HAZ1); assay: Selectivity interaction (KinomeScan (DiscoverX)) EUB0000348aPTSA CLK4; details: at 1 µM
[33] = molecular target: T5, Mitogen-activated protein kinase kinase kinase 13 (Homo sapiens); assay: Selectivity interaction (KinomeScan (DiscoverX)) EUB0000348aPTSA MAP3K13; details: at 1 µM
[34] = molecular target: Endothelin receptor type B (Homo sapiens) (UniProt P24530); details: at 10 µM

T1 sequence (P35367 whole entry): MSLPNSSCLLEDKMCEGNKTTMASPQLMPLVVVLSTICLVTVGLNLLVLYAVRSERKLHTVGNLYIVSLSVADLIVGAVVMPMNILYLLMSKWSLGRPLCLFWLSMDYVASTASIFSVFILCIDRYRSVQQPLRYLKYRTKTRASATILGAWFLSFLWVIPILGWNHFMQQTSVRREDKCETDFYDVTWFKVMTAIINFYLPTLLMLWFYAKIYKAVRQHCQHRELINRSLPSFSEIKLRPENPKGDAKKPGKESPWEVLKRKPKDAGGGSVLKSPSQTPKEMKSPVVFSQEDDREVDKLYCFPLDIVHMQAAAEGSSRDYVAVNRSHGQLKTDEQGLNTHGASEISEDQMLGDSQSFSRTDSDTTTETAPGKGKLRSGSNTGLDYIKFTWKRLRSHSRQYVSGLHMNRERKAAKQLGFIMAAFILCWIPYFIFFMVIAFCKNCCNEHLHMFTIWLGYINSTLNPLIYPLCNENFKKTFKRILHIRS
T6 sequence (Q99720 whole entry): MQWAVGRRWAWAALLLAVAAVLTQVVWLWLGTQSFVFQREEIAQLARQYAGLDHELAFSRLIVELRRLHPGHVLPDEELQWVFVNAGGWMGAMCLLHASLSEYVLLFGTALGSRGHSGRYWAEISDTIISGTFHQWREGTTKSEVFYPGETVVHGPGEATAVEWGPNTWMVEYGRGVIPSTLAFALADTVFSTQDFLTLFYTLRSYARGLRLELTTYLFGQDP
Chain of Tyrosine-protein kinase Lck (P06239 whole entry): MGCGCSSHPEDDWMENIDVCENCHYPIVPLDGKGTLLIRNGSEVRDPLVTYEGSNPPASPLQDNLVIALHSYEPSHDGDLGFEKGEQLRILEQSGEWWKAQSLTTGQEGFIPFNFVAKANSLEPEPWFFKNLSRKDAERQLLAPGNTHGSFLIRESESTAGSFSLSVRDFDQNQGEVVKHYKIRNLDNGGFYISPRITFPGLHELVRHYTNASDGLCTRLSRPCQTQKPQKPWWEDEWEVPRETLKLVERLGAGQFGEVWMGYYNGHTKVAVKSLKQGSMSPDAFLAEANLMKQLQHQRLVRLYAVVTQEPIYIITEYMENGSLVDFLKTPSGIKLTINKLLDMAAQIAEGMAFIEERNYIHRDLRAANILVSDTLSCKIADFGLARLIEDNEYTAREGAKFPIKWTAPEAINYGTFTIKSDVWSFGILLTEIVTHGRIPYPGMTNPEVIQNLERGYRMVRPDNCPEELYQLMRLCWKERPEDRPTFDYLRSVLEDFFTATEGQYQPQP
Chain of Tyrosine-protein kinase ZAP-70 (Homo sapiens) (P43403 whole entry): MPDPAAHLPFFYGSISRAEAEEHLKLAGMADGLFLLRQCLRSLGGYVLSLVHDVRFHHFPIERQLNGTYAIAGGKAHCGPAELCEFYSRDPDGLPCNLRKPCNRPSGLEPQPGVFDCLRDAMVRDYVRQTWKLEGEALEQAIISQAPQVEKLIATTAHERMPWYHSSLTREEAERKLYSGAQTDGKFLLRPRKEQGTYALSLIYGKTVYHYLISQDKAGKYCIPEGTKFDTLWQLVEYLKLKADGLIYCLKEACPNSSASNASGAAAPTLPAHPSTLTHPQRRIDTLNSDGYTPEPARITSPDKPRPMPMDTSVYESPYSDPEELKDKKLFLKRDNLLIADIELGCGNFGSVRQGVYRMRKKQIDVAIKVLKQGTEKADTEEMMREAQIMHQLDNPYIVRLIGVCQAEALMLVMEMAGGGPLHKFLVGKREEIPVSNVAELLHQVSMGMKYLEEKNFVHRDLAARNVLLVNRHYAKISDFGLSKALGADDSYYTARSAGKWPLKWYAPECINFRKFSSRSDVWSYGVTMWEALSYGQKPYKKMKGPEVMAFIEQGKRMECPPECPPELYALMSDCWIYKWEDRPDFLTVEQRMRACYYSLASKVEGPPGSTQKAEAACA
Chain of Tyrosine-protein kinase Fyn (P06241 whole entry): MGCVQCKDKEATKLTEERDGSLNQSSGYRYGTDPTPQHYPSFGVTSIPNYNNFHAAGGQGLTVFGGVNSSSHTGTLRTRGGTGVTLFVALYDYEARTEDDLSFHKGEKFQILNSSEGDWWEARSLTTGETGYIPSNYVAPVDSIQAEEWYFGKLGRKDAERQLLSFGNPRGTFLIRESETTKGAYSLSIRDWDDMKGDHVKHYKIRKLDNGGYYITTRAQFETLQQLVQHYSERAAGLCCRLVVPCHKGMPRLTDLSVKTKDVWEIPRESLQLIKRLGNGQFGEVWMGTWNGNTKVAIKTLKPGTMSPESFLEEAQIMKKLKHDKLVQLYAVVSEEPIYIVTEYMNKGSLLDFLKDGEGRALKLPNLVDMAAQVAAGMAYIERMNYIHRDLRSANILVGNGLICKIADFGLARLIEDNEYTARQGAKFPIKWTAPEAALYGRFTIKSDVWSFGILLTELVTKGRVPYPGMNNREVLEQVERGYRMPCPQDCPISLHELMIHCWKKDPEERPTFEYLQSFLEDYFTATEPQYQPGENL
Chain of 5-hydroxytryptamine receptor 2B (P41595 whole entry): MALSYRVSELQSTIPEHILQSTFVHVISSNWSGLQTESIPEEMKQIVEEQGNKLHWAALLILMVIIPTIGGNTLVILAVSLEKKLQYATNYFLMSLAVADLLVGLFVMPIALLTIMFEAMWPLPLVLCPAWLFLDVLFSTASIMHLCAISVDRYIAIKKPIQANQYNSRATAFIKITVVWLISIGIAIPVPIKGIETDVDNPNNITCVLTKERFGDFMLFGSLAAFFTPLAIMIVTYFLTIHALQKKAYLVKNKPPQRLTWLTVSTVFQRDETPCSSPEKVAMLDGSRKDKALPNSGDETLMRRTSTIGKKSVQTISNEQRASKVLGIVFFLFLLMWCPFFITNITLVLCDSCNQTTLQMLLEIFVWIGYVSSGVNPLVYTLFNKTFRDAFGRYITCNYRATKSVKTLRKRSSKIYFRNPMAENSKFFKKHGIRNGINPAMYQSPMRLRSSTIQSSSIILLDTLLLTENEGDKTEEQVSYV
Chain of Cyclin-dependent kinase 5 (Homo sapiens) (Q00535 whole entry, looked up): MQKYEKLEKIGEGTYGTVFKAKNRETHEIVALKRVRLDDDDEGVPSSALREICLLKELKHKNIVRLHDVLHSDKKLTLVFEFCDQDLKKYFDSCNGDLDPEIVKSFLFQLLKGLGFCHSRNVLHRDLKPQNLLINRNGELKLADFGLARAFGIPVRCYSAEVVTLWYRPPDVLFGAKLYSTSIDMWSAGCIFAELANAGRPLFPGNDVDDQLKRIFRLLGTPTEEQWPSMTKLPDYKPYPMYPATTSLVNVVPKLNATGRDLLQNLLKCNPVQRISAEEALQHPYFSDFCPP
Chain of Tyrosine-protein kinase HCK (P08631 whole entry): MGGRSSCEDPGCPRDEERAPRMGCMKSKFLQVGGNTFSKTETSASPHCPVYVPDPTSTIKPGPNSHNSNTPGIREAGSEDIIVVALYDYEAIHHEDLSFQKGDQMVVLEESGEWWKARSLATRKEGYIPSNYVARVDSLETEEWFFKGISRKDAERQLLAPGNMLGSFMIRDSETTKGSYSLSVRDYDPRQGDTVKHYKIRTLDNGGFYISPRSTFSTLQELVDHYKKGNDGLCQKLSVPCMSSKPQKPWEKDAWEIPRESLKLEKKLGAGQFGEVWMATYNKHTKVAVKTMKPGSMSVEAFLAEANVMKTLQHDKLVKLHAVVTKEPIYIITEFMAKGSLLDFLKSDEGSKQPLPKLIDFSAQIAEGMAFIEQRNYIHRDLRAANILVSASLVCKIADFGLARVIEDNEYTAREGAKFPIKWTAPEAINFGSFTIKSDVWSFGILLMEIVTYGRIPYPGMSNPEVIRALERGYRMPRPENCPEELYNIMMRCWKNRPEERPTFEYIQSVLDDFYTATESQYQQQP
Chain of Delta-type opioid receptor (Homo sapiens) (P41143 whole entry): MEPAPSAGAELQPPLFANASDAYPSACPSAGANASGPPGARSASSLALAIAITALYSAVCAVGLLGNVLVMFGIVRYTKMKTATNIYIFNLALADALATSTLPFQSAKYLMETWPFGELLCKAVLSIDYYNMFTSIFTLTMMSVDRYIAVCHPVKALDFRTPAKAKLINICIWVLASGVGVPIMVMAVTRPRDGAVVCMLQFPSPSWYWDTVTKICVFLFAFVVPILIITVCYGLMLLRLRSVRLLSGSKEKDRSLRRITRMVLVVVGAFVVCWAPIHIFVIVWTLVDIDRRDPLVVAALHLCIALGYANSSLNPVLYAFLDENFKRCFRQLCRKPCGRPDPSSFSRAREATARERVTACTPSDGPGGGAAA
Chain of Tyrosine-protein kinase Blk (P51451 whole entry): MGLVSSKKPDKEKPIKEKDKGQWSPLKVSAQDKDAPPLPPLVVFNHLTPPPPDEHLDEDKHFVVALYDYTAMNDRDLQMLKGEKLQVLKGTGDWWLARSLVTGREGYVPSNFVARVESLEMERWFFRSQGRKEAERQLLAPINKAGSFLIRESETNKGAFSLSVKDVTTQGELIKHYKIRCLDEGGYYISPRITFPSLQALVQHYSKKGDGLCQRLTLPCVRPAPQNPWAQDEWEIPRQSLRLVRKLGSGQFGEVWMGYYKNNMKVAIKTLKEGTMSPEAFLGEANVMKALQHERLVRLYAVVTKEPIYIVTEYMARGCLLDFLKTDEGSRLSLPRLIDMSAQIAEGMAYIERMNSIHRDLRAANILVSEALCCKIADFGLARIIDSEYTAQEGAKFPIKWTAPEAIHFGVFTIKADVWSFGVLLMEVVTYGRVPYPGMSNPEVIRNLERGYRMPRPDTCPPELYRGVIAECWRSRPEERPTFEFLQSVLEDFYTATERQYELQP

Compound: Cn1cncc1[C@](O)(COc1ccc(C#N)cc1-c1ccc(OC(F)(F)F)cc1)c1ccc(C#N)cc1 [ABT-100]
- Ki (Histamine H1 receptor [1]): > 10 µM
- Kd [2]: > 10 µM
- % of control [3]: 48%
- Kd [4]: > 10 µM
- % of control [5]: 46%
- % of inhibition [6]: 97%
- Kd (Ephrin type-A receptor 1): > 10 µM
- % of control [7]: 38%
- Kd [8]: > 10 µM
- % of control [9]: 48%

Compound: CCC(=N\O)/C(C)=C/c1ccc(F)c(C)c1 [A-226]
- Ki [10]: 3.69 µM
- % of control [11]: 38%
- % of control [12]: 23%

Compound: Cn1c(-c2csc(C3CCN(CC4=NC5N=CC=CC5N4)CC3)n2)nc2ccccc21 (stereo not given) [BAY-070]
- Ki [13]: 1.53 µM
- Ki [14]: 1.27 µM

Compound: CCCCN(CCCC)C(=O)CN1C[C@@H](c2cc(OC)c3c(c2)OCO3)[C@H](C(=O)O)[C@H]1CC(C)(C)CCC
- Ki [15]: 0.289 µM

Compound: CC#CC(=O)N1CCC[C@H]1c1nc(-c2ccc(C(=O)Nc3ccccn3)cc2)c2c(N)nccn12 [ACALABRUTINIB]
- % of control [16]: 2.1%
- % of control [17]: 4.3%
- IC50 [18]: > 10 µM
- IC50 [19]: > 10 µM
- IC50 [20]: > 10 µM
- IC50 [21]: > 10 µM
- IC50 [22]: > 10 µM
- IC50 [23]: > 10 µM
- IC50 [24]: > 10 µM
- IC50 [25]: > 10 µM
- % of control [26]: 6.4%

Compound: NS(=O)(=O)c1cc(NC(=O)Cc2ccccc2)ccc1Oc1cccc(Cl)c1 [BAY-1797]
- Ki [27]: 4.58 µM

Compound: CCCCN(CCCC)C(=O)CN1C[C@H](c2cc(OC)c3c(c2)OCO3)[C@@H](C(=O)O)[C@@H]1CC(C)(C)CCC
- % of inhibition (Histamine H1 receptor [28]): 54%
- Ki (Histamine H1 receptor [29]): > 10 µM
- % of inhibition [30]: 62%
- % of control [31]: 0%
- % of control [32]: 0%
- % of control [33]: 0%
- % of inhibition [34]: 56%
